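Where inhibition never reached the appropriate level, the endpoint shown equals the highest concentration tested. Otherwise, values were interpolated linearly from a five-concentration, 48-hour dose response in 96-well plates. At the GI50, growth is halved.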 Active and inactive are the calls of the source. Cut-off read from the data, not from the text of the source: active = GI50 up to about 1.1 µM and inactive = higher.
Assays:
Assay in all cases: growth of human tumour cells (NCI), 48 h
RXF 631 = tested on: RXF 631
UACC-62 = tested on: UACC-62
NCI-H460 = tested on: NCI-H460
KM12 = tested on: KM12
SW-620 = tested on: SW-620
SN12C = tested on: SN12C
TK-10 = tested on: TK-10
SK-OV-3 = tested on: SK-OV-3
OVCAR-5 = tested on: OVCAR-5
SK-MEL-28 = tested on: SK-MEL-28
NCI-H522 = tested on: NCI-H522
RXF 393 = tested on: RXF 393
OVCAR-3 = tested on: OVCAR-3
HT-29 = tested on: HT-29
NCI-H23 = tested on: NCI-H23
K562 = tested on: K562
M14 = tested on: M14
DLD-1 = tested on: DLD-1
OVCAR-4 = tested on: OVCAR-4
SR = tested on: SR
UACC-257 = tested on: UACC-257
UO-31 = tested on: UO-31
IGROV-1 = tested on: IGROV-1
CCRF-CEM = tested on: CCRF-CEM
RPMI-8226 = tested on: RPMI-8226
EKVX = tested on: EKVX
SF-539 = tested on: SF-539
DMS-114 = tested on: DMS-114
Malme-3M = tested on: Malme-3M
M19-MEL = tested on: M19-MEL
LXFL 529 = tested on: LXFL 529
SK-MEL-5 = tested on: SK-MEL-5
SNB-75 = tested on: SNB-75
HCC 2998 = tested on: HCC 2998
A498 = tested on: A498
HL-60 = tested on: HL-60
OVCAR-8 = tested on: OVCAR-8
CAKI-1 = tested on: CAKI-1
LOX IMVI = tested on: LOX IMVI
U-251 = tested on: U-251
SNB-19 = tested on: SNB-19
HCT-15 = tested on: HCT-15
SF-268 = tested on: SF-268
KM-20L2 = tested on: KM-20L2
NCI-H226 = tested on: NCI-H226
MOLT-4 = tested on: MOLT-4
A549 = tested on: A549
SK-MEL-2 = tested on: SK-MEL-2
HOP-62 = tested on: HOP-62
DMS-273 = tested on: DMS-273
COLO 205 = tested on: COLO 205
HCT-116 = tested on: HCT-116
786-0 = tested on: 786-0
HOP-18 = tested on: HOP-18
SF-295 = tested on: SF-295
SNB-78 = tested on: SNB-78
ACHN = tested on: ACHN
HOP-92 = tested on: HOP-92
XF498 = tested on: XF498

O=C1OC(CC(=O)c2ccc(Cl)cc2Cl)C(Cl)=C1Cl (stereo not drawn)
GI50 (RXF 631): 31.1 µM (inactive) | GI50 (UACC-62): 17 µM (inactive) | GI50 (NCI-H460): > 57.3 µM (inactive) | GI50 (KM12): > 100 µM (inactive) | GI50 (SW-620): 19.4 µM (inactive) | GI50 (SN12C): 18.9 µM (inactive) | GI50 (TK-10): > 55.5 µM (inactive) | GI50 (SK-OV-3): > 36.1 µM (inactive) | GI50 (OVCAR-5): > 45.1 µM (inactive) | GI50 (SK-MEL-28): 19.1 µM (inactive) | GI50 (NCI-H522): 17.6 µM (inactive) | GI50 (RXF 393): 18.2 µM (inactive) | GI50 (OVCAR-3): 33.8 µM (inactive) | GI50 (HT-29): 18.7 µM (inactive) | GI50 (NCI-H23): 28.9 µM (inactive) | GI50 (K562): 29.1 µM (inactive) | GI50 (M14): 27.2 µM (inactive) | GI50 (DLD-1): 22.4 µM (inactive) | GI50 (OVCAR-4): 42.6 µM (inactive) | GI50 (SR): 26.5 µM (inactive) | GI50 (UACC-257): > 100 µM (inactive) | GI50 (UO-31): > 42.6 µM (inactive) | GI50 (IGROV-1): > 41 µM (inactive) | GI50 (CCRF-CEM): 25.7 µM (inactive) | GI50 (RPMI-8226): 26.9 µM (inactive) | GI50 (EKVX): > 54.7 µM (inactive) | GI50 (SF-539): 22 µM (inactive) | GI50 (DMS-114): 18.4 µM (inactive) | GI50 (Malme-3M): 19.7 µM (inactive) | GI50 (M19-MEL): 20 µM (inactive) | GI50 (LXFL 529): 17.1 µM (inactive) | GI50 (SK-MEL-5): 45.6 µM (inactive) | GI50 (SNB-75): > 43.7 µM (inactive) | GI50 (HCC 2998): 15.8 µM (inactive) | GI50 (A498): > 100 µM (inactive) | GI50 (HL-60): 26.7 µM (inactive) | GI50 (OVCAR-8): 27.2 µM (inactive) | GI50 (CAKI-1): 30.8 µM (inactive) | GI50 (LOX IMVI): 24.5 µM (inactive) | GI50 (U-251): 27.6 µM (inactive) | GI50 (SNB-19): > 49.2 µM (inactive) | GI50 (HCT-15): 29.3 µM | GI50 (SF-268): 25.2 µM (inactive) | GI50 (KM-20L2): 21.1 µM (inactive) | GI50 (NCI-H226): 30 µM (inactive) | GI50 (MOLT-4): 24.8 µM (inactive) | GI50 (A549): > 100 µM (inactive) | GI50 (SK-MEL-2): 19.8 µM (inactive) | GI50 (HOP-62): > 59.2 µM (inactive) | GI50 (DMS-273): 39 µM (inactive) | GI50 (COLO 205): 20.8 µM (inactive) | GI50 (HCT-116): 18.2 µM (inactive) | GI50 (786-0): 21.9 µM (inactive) | GI50 (HOP-18): > 100 µM (inactive) | GI50 (SF-295): > 100 µM (inactive) | GI50 (SNB-78): 33.1 µM (inactive) | GI50 (ACHN): > 41.1 µM (inactive) | GI50 (HOP-92): 18.9 µM (inactive) | GI50 (XF498): 21.3 µM (inactive)

COc1cc2c(cc1OC)C1[C@@H](c3ccccc3)OCN1CC2 (stereo partly drawn)
GI50 (RXF 631): > 100 µM (inactive) | GI50 (UACC-62): > 100 µM (inactive) | GI50 (NCI-H460): > 100 µM (inactive) | GI50 (KM12): > 100 µM (inactive) | GI50 (SW-620): 56.8 µM (inactive) | GI50 (SN12C): > 100 µM (inactive) | GI50 (TK-10): > 100 µM (inactive) | GI50 (SK-OV-3): > 46 µM (inactive) | GI50 (OVCAR-5): > 100 µM (inactive) | GI50 (SK-MEL-28): > 100 µM (inactive) | GI50 (NCI-H522): > 100 µM (inactive) | GI50 (RXF 393): > 100 µM (inactive) | GI50 (OVCAR-3): > 100 µM (inactive) | GI50 (HT-29): > 100 µM (inactive) | GI50 (NCI-H23): > 100 µM (inactive) | GI50 (K562): > 63.1 µM (inactive) | GI50 (M14): > 100 µM (inactive) | GI50 (DLD-1): > 86.9 µM (inactive) | GI50 (OVCAR-4): > 100 µM (inactive) | GI50 (SR): > 88.7 µM (inactive) | GI50 (UACC-257): > 100 µM (inactive) | GI50 (UO-31): > 100 µM (inactive) | GI50 (IGROV-1): > 100 µM (inactive) | GI50 (CCRF-CEM): > 77.6 µM (inactive) | GI50 (RPMI-8226): 44.4 µM (inactive) | GI50 (EKVX): > 100 µM (inactive) | GI50 (SF-539): > 100 µM (inactive) | GI50 (DMS-114): 88.1 µM (inactive) | GI50 (Malme-3M): > 100 µM (inactive) | GI50 (M19-MEL): > 100 µM (inactive) | GI50 (LXFL 529): > 100 µM (inactive) | GI50 (SK-MEL-5): > 96.4 µM (inactive) | GI50 (SNB-75): 60.8 µM (inactive) | GI50 (HCC 2998): > 100 µM (inactive) | GI50 (A498): > 100 µM (inactive) | GI50 (HL-60): 54.5 µM (inactive) | GI50 (OVCAR-8): > 100 µM (inactive) | GI50 (CAKI-1): > 100 µM (inactive) | GI50 (LOX IMVI): > 96.2 µM (inactive) | GI50 (U-251): > 100 µM (inactive) | GI50 (SNB-19): > 100 µM (inactive) | GI50 (HCT-15): > 90.6 µM | GI50 (SF-268): > 100 µM (inactive) | GI50 (KM-20L2): > 100 µM (inactive) | GI50 (NCI-H226): > 100 µM (inactive) | GI50 (MOLT-4): > 100 µM (inactive) | GI50 (A549): > 100 µM (inactive) | GI50 (SK-MEL-2): > 100 µM (inactive) | GI50 (HOP-62): > 100 µM (inactive) | GI50 (DMS-273): > 100 µM (inactive) | GI50 (COLO 205): 91.2 µM (inactive) | GI50 (HCT-116): > 82.2 µM (inactive) | GI50 (786-0): > 100 µM (inactive) | GI50 (HOP-18): > 100 µM (inactive) | GI50 (SF-295): > 100 µM (inactive) | GI50 (SNB-78): > 73.1 µM (inactive) | GI50 (ACHN): > 100 µM (inactive) | GI50 (HOP-92): 83.4 µM (inactive) | GI50 (XF498): > 100 µM (inactive)

From ChEMBL document CHEMBL1201862, “PubChem BioAssay data set” (2004)
